# Measurements as given in US20170252278A1, “INHIBITION OF MATURATION OF DENTAL BIOFILM AND CARIOGENIC PROPERTIES” (KONINKLIJKE PHILIPS N.V., priority 2014, published 2017).
# How the values were obtained:
# Format in all cases: cell-based
# [1] = tested on: in vitro oral plaque biofilms; experiment: Lactic acid production of biofilms grown with 3-oxo-N(2-oxocyclohexyl)dodecanamide and C12-HSL (interference test); conditions: all concentrations (25 or 100 μM), with 0, 25 or 100 μM C12-HSL; 48 h growth
# Description: (§1) To estimate the cariogenic phenotype, lactic acid production of the in vitro oral plaque biofilms was determined prior to harvesting (Exerkate et al 2010). In short, the biofilms on coverslips were placed in a 24-well plate containing 1.5 ml of BPW with 0.2% sucrose. Lactic acid formation was allowed for 3 hr at 37° C. under anaerobic conditions. The total amount of lactic acid produced in this period was analyzed using a colorimetric assay described previously (van Loveren et al. (2000)) and expressed as mM lactic acid, and as μM lactic acid per 1×10^6 CFU.
# In this experiment the effect of the quorum sensing molecule C12-HSL on the lactate reducing activity of 3-Oxo-N-(2-oxocyclohexyl)dodecanamide was tested. Biofilms were grown for 48 h in buffered McBain medium supplemented with 0.2% sucrose, in the presence of 0, or 25 or 100 μM 3-oxo-N(2-oxocyclohexyl)dodecanamide and 0, or 25 or 100 μM of C12-HSL. Medium was refreshed twice every day. After 48 h of growth, biofilms were transferred to BPW with 0.2% sucrose, and biofilms were allowed to produce lactate for 3 h.
# [2] = tested on: in vitro oral plaque biofilms; experiment: Lactic acid production assay of in vitro oral plaque biofilms
# Description: All compounds tested of Table 1 were obtained from Sigma Aldrich. All compounds of Table 2, except 3-oxo-N(2oxocyclohexyl)dodecanamide, were kindly provided by M. Meijler, University of the Negev, Israel. The compounds were dissolved in DMSO and stored at −20 C. The compounds were continuously present at the indicated concentrations during biofilm growth, but not during further phenotypic analysis, i.e. lactate production.
# as §1
# Biofilms were grown for 48 h in buffered McBain medium supplemented with 0.2% sucrose in the presence of 100 μM of one of the compounds. Medium was refreshed twice every day. […]
# [3] = tested on: in vitro oral plaque biofilms; experiment: In vitro oral plaque biofilm formation in the Amsterdam Active Attachment Model, CFU determination; conditions: for in vitro oral plaque biofilm formation, Colony Forming Units: FIG. 1
# Description: Stimulated saliva, used as inoculum, was collected on ice from ten donors. Saliva was donated 24 h after last brushing. The saliva was diluted 2-fold with 60% sterile glycerol, aliquoted and stored at −80° C. Before use, a pooled sample was prepared by mixing 200 μl of thawed saliva of each donor and vortexing for 30 seconds. In vitro oral plaque biofilms were inoculated 1:50 with pooled saliva.
# In vitro oral plaque biofilms were grown in the Amsterdam Active Attachment Model (AAA-model, Exterkate et al. (2010)), assembled with glass coverslips (diameter 12 mm; Menzel, Braunschweig, Germany). The model was inoculated for 8 h with pooled saliva in buffered semi-defined McBain medium (2.5 g/l mucin (Sigma, St Louis, Mo.), 2.0 g/l Bacto peptone (Difco, Detroit, Mich.), 2.0 g/l Trypticase peptone (BBL, Cockeysville, Md.), 1.0 g/l yeast extract (BD Diagnostic Systems, Sparks, Md.), 0.35 g/l NaCl, 0.2 g/l KCl, 0.2 g/l CaCl2, 1 mg/l hemin (Sigma, St. Louis, Mo., USA), and 2 mg/l vitamin K1 (McBain et al. (2005)), with 50 mmol/1 PIPES at pH 7.0), with 0.2% sucrose.
# In vitro oral plaque biofilms were grown in the AAA-model for 48-96 h in the presence of the compounds tested. The model was inoculated with saliva and incubated anaerobically at 37° C. for 8 hours to allow microbes to attach to the glass coverslips. After 8 hours of attachment, the inoculation medium was refreshed and in vitro oral plaque biofilms were grown for 16 hours. This refreshment routine was repeated daily until the day of harvesting.
# In vitro oral plaque biofilms were harvested by transferring the glass coverslips into 2 ml phosphate buffered saline (PBS). The biofilms were dispersed using a Vibracell VCX130 sonicator with a maximum of 130 Watts and 20 kHz (Sonics & Materials, Newtown, USA). Bio films were sonicated on ice for 1 minute with a pulse rate of 50% and pulses of 1 second. Vibration amplitude was set to 40%.
# To estimate the amount of in vitro oral plaque biofilm formation, total anaerobic colony forming units were determined. Briefly, serial dilutions of the dispersed bio films were made and plated on tryptic soy agar blood plates. Plates were subsequently incubated anaerobically for 96 h at 37° C. and colony forming units were determined by counting the number of colonies for each dilution.
# [4] = tested on: in vitro oral plaque biofilms; experiment: Microbial composition of biofilms by 16S rDNA sequencing; conditions: for Actinobacillus, share of biofilm composition / Actinomyces, share of biofilm composition / Campylobacter, share of biofilm composition / Fusobacterium, share of biofilm composition / Granulicatella, share of biofilm composition / Haemophilus, share of biofilm composition / Megasphaera, share of biofilm composition / Neisseria, share of biofilm composition / Other taxa, share of biofilm composition / Porphyromonas, share of biofilm composition / Prevotella, share of biofilm composition / Rothia, share of biofilm composition / Solobacterium, share of biofilm composition / Streptococcus, share of biofilm composition / Unclass. Pasteurellaceae, share of biofilm composition / Veillonella, share of biofilm composition: 3-Oxo-N 100 μM, furanones 10 μM
# Description: DNA was isolated using phenol bead-beating followed by Agowa isolation, following the manufacturers instructions (LGC Genomics, Mag mini kit). Briefly, cells were mechanically disrupted four times at 1200 rpm for two minutes in addition of Tris-saturated Phenol, pH8, 0.1 mm zirconium beads and Mag lysis buffer. The DNA-containing phase was mixed with binding buffer and magnetic beads. DNA concentration was estimated by determining the absorbance at 260 nm using the nanodrop (Isogen, ND-1000).
# PCR was performed in a final volume of 25 μl containing 1 μl of each primer ([…]), 1 μl dNTP (10 mM), 2.5 μl 10× DreamTaq Buffer including MgCl2 (Thermo Scientific), 0.2 μl DreamTaq DNA Polymerase (5 u/μ1, Thermo Scientific) and 50 ng of DNA. Initial denaturation was performed at 94° C. for 4 min, followed by 35 cycles of denaturation at 94° C. for 30 s, 54° C. annealing for 1 min, 72° C. for 1 min primer extension and a final extension at 72° C. for 5 min. Product formation was confirmed by electrophoresis of 5 μl on a 1% (w/v) agarose gel (Sphearo Q, Leiden, The Netherlands) stained with ethidium bromide.
# These samples were analyzed by 16S rDNA Illumina sequencing at TNO Zeist (Netherlands).
# Table 3. Microbial composition of biofilms grown for 48 (Table 3A) or 96 h (Table 3B) in the presence of different QS inhibitors. Composition was determined by 16S rDNA sequencing. The composition of the original inoculum used for all biofilms was also determined. “Unclass.” means: unclassified.
smiles,measurement,setting,value
"CCCCCCCCCC(=O)CC(=O)NC1CCCCC1=O (stereo not shown) [3-Oxo-N, 3-oxo-N-(2-oxocyclohexyl)dodecanamide]",total lactic acid production per biofilm vs control (FIG. 3),[1],statistical significant difference
same,lactate production (FIG. 4A),[2]; 10 μM,significantly reduces
same,lactate production (FIG. 4A),[2]; 100 μM,almost completely blocked
same,lactate production corrected for CFU (FIG. 4B),[2]; 100 μM or 10 μM,still lower
same,total lactic acid production per biofilm (FIG. 2),"[2]; 100 μM, biofilms grown 48 h, 3 h in BPW with 0.2% sucrose",reduced lactic acid production
same,lactate production after 96 hours of growth,[2]; 96 hours of growth,the reducing effect was still present
same,inhibitory concentration (concentration that completely inhibits oral plaque biofilm growth),[3],above 800 μM
same,"in vitro oral plaque biofilm formation, Colony Forming Units","[3]; 100 μM, control 1.5×10^9 CFU",up to 6.6×10^8 CFU
same,biofilm production (visible amount of biofilm),"[3]; Example 2, 100 μM, 48 h",normal amounts of biofilm
same,"in vitro oral plaque biofilm formation, Colony Forming Units","[3]; all the other concentrations (below 100 μM), same as control",1.5×10^9 CFU
same,effect on in vitro oral plaque biofilm formation,[3]; highest concentration tested (100 μM),slightly affected
same,Streptococcus reduced versus control,"[4]; 100 μM, 48 h",more than 30%
same,Veillonella more abundant than in control,"[4]; 100 μM, 48 h",10%
same,change in Actinobacillus species versus control,"[4]; 100 μM, 48 h",increase
same,"Actinobacillus, share of biofilm composition",[4]; 48 h,27.6%
same,"Actinomyces, share of biofilm composition",[4]; 48 h,0.0%
same,"Campylobacter, share of biofilm composition",[4]; 48 h,1.1%
same,"Fusobacterium, share of biofilm composition",[4]; 48 h,0.0%
same,"Granulicatella, share of biofilm composition",[4]; 48 h,0.0%
same,"Haemophilus, share of biofilm composition",[4]; 48 h,0.2%
same,"Megasphaera, share of biofilm composition",[4]; 48 h,0.0%
same,"Neisseria, share of biofilm composition",[4]; 48 h,0.0%
same,"Other taxa, share of biofilm composition",[4]; 48 h,0.1%
same,"Porphyromonas, share of biofilm composition",[4]; 48 h,0.0%
same,"Prevotella, share of biofilm composition",[4]; 48 h,0.0%
same,"Rothia, share of biofilm composition",[4]; 48 h,0.0%
same,"Solobacterium, share of biofilm composition",[4]; 48 h,0.0%
same,"Streptococcus, share of biofilm composition",[4]; 48 h,34.3%
same,"Unclass. Pasteurellaceae, share of biofilm composition",[4]; 48 h,0.6%
same,"Veillonella, share of biofilm composition",[4]; 48 h,36.0%
same,"Actinobacillus, share of biofilm composition",[4]; 96 h,12.0%
same,"Actinomyces, share of biofilm composition",[4]; 96 h,0.0%
same,"Campylobacter, share of biofilm composition",[4]; 96 h,7.2%
same,"Fusobacterium, share of biofilm composition",[4]; 96 h,0.0%
same,"Granulicatella, share of biofilm composition",[4]; 96 h,0.0%
same,"Haemophilus, share of biofilm composition",[4]; 96 h,0.1%
same,"Megasphaera, share of biofilm composition",[4]; 96 h,0.0%
same,"Neisseria, share of biofilm composition",[4]; 96 h,0.0%
same,"Other taxa, share of biofilm composition",[4]; 96 h,0.3%
same,"Porphyromonas, share of biofilm composition",[4]; 96 h,0.0%
same,"Prevotella, share of biofilm composition",[4]; 96 h,0.0%
same,"Rothia, share of biofilm composition",[4]; 96 h,0.0%
same,"Solobacterium, share of biofilm composition",[4]; 96 h,0.0%
same,"Streptococcus, share of biofilm composition",[4]; 96 h,28.7%
same,"Unclass. Pasteurellaceae, share of biofilm composition",[4]; 96 h,0.0%
same,"Veillonella, share of biofilm composition",[4]; 96 h,51.7%
